The numbers were not newly measured in patent US20140155265A1, “HERBICIDAL COMPOSITIN COMPRISING PINOXADEN AND FLUROXYPYR AND METHODS OF USE THEREOF” (priority 2011, published 2014), which cites them from elsewhere.

Structures are written as SMILES.

The conditions of the series: Pesticide Manual 15th edition.

Consider `Nc1c(Cl)c(F)nc(OCC(=O)O)c1Cl` [Fluoroxypyr (free carboxylic acid), Fluoroxypyr], for which the pKa (as a rule, the negative logarithm of the acid dissociation constant) is reported as 2.94.
